Measured values: patent publication US10273240B2, “Cortistatin analogues, syntheses, and uses thereof” (President and Fellows of Harvard College, priority 2015, dated 2019)
Like-named read-outs stand apart in the source and are kept apart here.

How the values were obtained:
Assay type in all cases: cell-based
[1] = system: SKNO-1; assay: Cell growth assay, SKNO-1; settings: Homo sapiens
Method: (§1) All media was supplemented with 100 U/mL penicillin and 100 μg/mL streptomycin. Human cancer cell lines were grown in the following media: MV4; 11, K562, MOLM-14 in RPMI-1640, 10% FBS; SKNO-1 in RPMI-1640, 10% FBS, and 10 ng/mL GM-CSF; MV4;11 and K562 were from ATCC. SKNO-1 was from DSMZ.
(§2) Cell Culture. All media was supplemented with 100 U/mL penicillin and 100 μg/mL streptomycin. Human cancer cell lines were grown in the following media: MV4; 11, RS4; 11, K562, HEL, MOLM-14, MEG-01 in RPMI-1640, 10% FBS; SET-2 in RPMI-1640, 20% FBS; UKE-1 in RPMI-1640, 10% FBS, 10% horse serum and 1 μM hydrocortisone; SKNO-1 and TF-1 in RPMI-1640, 10% FBS, and 10 or 2 ng/mL GM-CSF, respectively; HaCaT in DMEM, 10% FBS; and HCT116 in McCoy's 5 A, 10% FBS (proliferation assay) or DMEM, 10% FBS (gene expression study). HepG2, MV4;11, RS4;11, MEG-01, TF-1, HCT116 and K562 were from ATCC. SKNO-1 was from DSMZ. HEL, UKE-1, and SET-2 were provided by Ross L. Levine and HaCaT, MV4;11-mCLP, and MOLM-14 by Van Wilson, Andrew L. Kung, and Scott A. Armstrong, respectively. MOLM-14 cells were authenticated by STR profiling and flow cytometry and all cell lines were routinely tested and found to be negative for mycoplasma.

[2] = system: MOLM-14; assay: Cell growth assay, MOLM-14; settings: Homo sapiens
Method: as §1, §2

[3] = system: MV4;11; assay: Cell growth assay, MV4;11; settings: Homo sapiens
Method: as §1, §2

[4] = system: K562; assay: Cell growth assay, K562; settings: Homo sapiens
Method: as §1, §2

[5] = system: RS4;11; assay: Cell growth assay, RS4;11; settings: Homo sapiens, RS4-11, 72 h, read-out: Mean GI50 (nM), RS4;11
Method: as §2

[6] = system: SET-2; assay: Cell growth assay, SET-2; settings: Homo sapiens, SET-2, 72 h, read-out: Mean GI50 (nM), SET-2
Method: as §2

[7] = system: MEG-01; assay: Cell growth assay, MEG-01; settings: Homo sapiens, MEG-01, 72 h, read-out: Mean GI50 (nM), MEG-01
Method: as §2

[8] = system: TF-1; assay: Cell growth assay, TF-1; settings: Homo sapiens, TF-1, 72 h, read-out: Mean GI50 (nM), TF-1
Method: as §2

[9] = system: HEL; assay: Cell growth assay, HEL; settings: Homo sapiens, 72 h, read-out: Mean GI50 (nM), HEL
Method: as §2

SMILES | GI50 ([1]; SKNO-1, 240 h, read-out: SKNO-1 GI50 day 10) [nM] | GI50 ([2]; MOLM-14, 240 h, read-out: MOLM14 GI50 day 10) [nM] | GI50 ([3]; MV4-11, 240 h, read-out: MV4;11 GI50 day 10) [nM] | GI50 ([4]; K562, 240 h, read-out: K562 GI50 day 10) [nM] | GI50 ([1]; SKNO-1, 72 h, I-BET151, after 3 days, read-out: Mean GI50 (nM), SKNO-1) [nM] | GI50 ([2]; MOLM-14, 72 h, I-BET151, after 3 days, read-out: Mean GI50 (nM), MOLM-14) [nM] | GI50 ([3]; MV4-11, 72 h, I-BET151, after 3 days, read-out: Mean GI50 (nM), MV4;11) [nM] | GI50 ([4]; K562, 72 h, I-BET151, after 3 days, read-out: Mean GI50 (nM), K562) [nM] | GI50 [5] [nM] | GI50 [6] [nM] | GI50 [7] [nM] | GI50 [8] [nM] | GI50 [9] [nM]
C[C@]12CC=C3C=C4CCC(=O)NC[C@]45CC[C@]3(O5)[C@@H]1CC[C@@H]2c1ccc2ccncc2c1 [Compound 15B] | 0.6 | 17.5 | 3.75 | > 1000 | – | – | – | – | – | – | – | – | –
COc1cc2c(cc1-c1c(C)noc1C)ncc1[nH]c(=O)n([C@H](C)c3ccccn3)c12 [I-BET151] | – | – | – | – | 50 | 18 | 20 | 750 | 200 | 245 | 375 | 163 | 200
